Eleven molecules from ChEMBL document CHEMBL1201862, “PubChem BioAssay data set” (2004) can be followed below.

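Tested at 5 concentrations; 48 h exposure; 96-well plates; endpoints linearly interpolated, else capped at highest concentration. Abbreviation: GI50, concentration required for 50% inhibition of growth.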 The source made the active and inactive calls. No stated cut-off is given here; in the data, active = GI50 up to about 1.1 µM and inactive = higher. A value given as a limit tells only on which side of the number the result lay.

Test systems include SF-295; HCC 2998; IGROV-1; HOP-62; Malme-3M; SK-MEL-2; SK-MEL-5; M14; MOLT-4; SK-OV-3; RPMI-8226; SW-620; CAKI-1; OVCAR-8; HT-29; KM12; HCT-15; A549; HOP-92.
Experiment in all cases: NCI tumour cell line growth inhibition, 48 h

`COc1cc2c(c(OC)c1OC)CCNC2C1=C(O)COC1=O` (stereo not drawn): the GI50 is > 100 µM (inactive) in the test with SF-295; > 100 µM (inactive) in the test on HCC 2998; > 100 µM (inactive) in the test on IGROV-1; > 100 µM (inactive) in the test with HOP-62; > 100 µM (inactive) in the test with Malme-3M; 61.9 µM (inactive) in the test with SK-MEL-2. Besides, the GI50 in the test with SK-MEL-5 was 95.1 µM (inactive); in the test on M14 it was > 100 µM (inactive); in the test on MOLT-4, > 100 µM (inactive); with SK-OV-3, > 100 µM (inactive); in the test on RPMI-8226, 88.3 µM (inactive); in the test on SW-620 it was > 100 µM (inactive). Further, the GI50 in the test with CAKI-1 was > 100 µM (inactive); in the test with OVCAR-8, > 100 µM (inactive); in the test on HT-29 it was > 100 µM (inactive); in the test on KM12, > 100 µM (inactive); in the test with HCT-15, greater than 100 µM; in the test on A549, > 100 µM (inactive). Further, in the test on HOP-92, the GI50 was > 100 µM (inactive).

Consider `COc1ccc2c(c1)OC[C@@H]1c3cc4c(cc3O[C@H]21)OCO4`, for which the GI50 in the test with SF-295, in the test with HCC 2998, in the test on HOP-62, with Malme-3M, in the test with SK-MEL-2 and in the test with SK-MEL-5 was > 100 µM (inactive) each time. For the same molecule, the GI50 was > 100 µM (inactive) in the test on M14; > 100 µM (inactive) with MOLT-4; > 100 µM (inactive) with SK-OV-3; > 100 µM (inactive) in the test with RPMI-8226; > 100 µM (inactive) in the test with SW-620; 58.5 µM (inactive) in the test on CAKI-1. For the same molecule, the GI50 is > 100 µM (inactive) in the test with OVCAR-8; > 100 µM (inactive) in the test on HT-29; > 100 µM (inactive) in the test on KM12; greater than 100 µM in the test on HCT-15; > 100 µM (inactive) with A549; 70 µM (inactive) in the test on HOP-92.

`CS(=O)(=O)OCCN1CCN(C(=O)c2cccc3c(Nc4ccc(S(N)(=O)=O)cc4)c4ccccc4nc23)CC1`: the GI50 with SF-295, with HCC 2998, in the test on IGROV-1, with HOP-62, in the test with Malme-3M and in the test with SK-MEL-2 was > 100 µM (inactive) throughout. The GI50 was > 100 µM (inactive) in the test on SK-MEL-5; > 100 µM (inactive) in the test on M14; > 100 µM (inactive) in the test on MOLT-4; > 100 µM (inactive) with SK-OV-3; > 46.5 µM (inactive) with RPMI-8226; > 39.3 µM (inactive) with SW-620. Further, the GI50 was > 100 µM (inactive) in the test on CAKI-1; > 100 µM (inactive) in the test on OVCAR-8; > 100 µM (inactive) with HT-29; > 100 µM (inactive) in the test on KM12; greater than 42.9 µM in the test on HCT-15; > 100 µM (inactive) with A549. The GI50 in the test with HOP-92 was > 100 µM (inactive).

For the molecule `CCOC1(OCC)N=C(N)C2(C#N)C3(C(=O)N(C(C)C)N=C3C)C12C#N` (stereo not drawn), the GI50 in the test on SF-295, in the test on HCC 2998, in the test on IGROV-1, in the test on HOP-62, in the test on Malme-3M and in the test on SK-MEL-2 was > 100 µM (inactive) each time. The GI50 in the test with M14, in the test on MOLT-4, in the test with SK-OV-3, with RPMI-8226, in the test on SW-620 and in the test on CAKI-1 was > 100 µM (inactive) throughout. Moreover, the GI50 was > 100 µM (inactive) with OVCAR-8; > 100 µM (inactive) in the test on HT-29; > 100 µM (inactive) in the test with KM12; greater than 100 µM with HCT-15; > 100 µM (inactive) with A549; > 100 µM (inactive) with HOP-92.

As to `CCOC(=O)c1sc2c(C(=O)OCC)n3ccccc3c2c1N`, the GI50 in the test with SF-295 is 44.6 µM (inactive); in the test with HCC 2998 it was > 100 µM (inactive); with IGROV-1 it was > 100 µM (inactive); in the test on HOP-62 it was 19.2 µM (inactive); in the test on Malme-3M it was > 100 µM (inactive); with SK-MEL-2, > 100 µM (inactive). Also, the GI50 with SK-MEL-5 was > 100 µM (inactive); in the test on M14, > 100 µM (inactive); in the test on MOLT-4, > 100 µM (inactive); in the test on SK-OV-3 it was 38 µM (inactive); with RPMI-8226, > 100 µM (inactive); in the test on SW-620, > 100 µM (inactive). Also, the GI50 in the test on CAKI-1 is > 100 µM (inactive); in the test on OVCAR-8, 61.9 µM (inactive); in the test with HT-29, > 100 µM (inactive); in the test with KM12, > 100 µM (inactive); with HCT-15, greater than 100 µM; in the test with A549, > 100 µM (inactive). Further, the GI50 in the test on HOP-92 is 13.4 µM (inactive).

Take `Nc1c(-c2cn(Cc3ccccc3)c3ccccc23)[n+]([O-])c2ccccc2[n+]1[O-]`: the GI50 in the test on SF-295 was 21.9 µM (inactive); in the test on HCC 2998 it was 35.8 µM (inactive); with IGROV-1, 21.7 µM (inactive); with Malme-3M, 29.7 µM (inactive); with SK-MEL-2, 23.1 µM (inactive); in the test with SK-MEL-5, 21.9 µM (inactive). Also, the GI50 in the test on M14 is 25.4 µM (inactive); with MOLT-4 it was 16.8 µM (inactive); in the test on SK-OV-3, 24.8 µM (inactive); with RPMI-8226, 24.6 µM (inactive); with SW-620, 51.4 µM (inactive); in the test on CAKI-1, 16 µM (inactive). Also, the GI50 is 45.4 µM (inactive) in the test on OVCAR-8; 27.2 µM (inactive) in the test with HT-29; 28.8 µM (inactive) with KM12; 27.2 µM with HCT-15; 30.8 µM (inactive) with A549; 8.79 µM (inactive) with HOP-92.

As to `O=C(Nc1nnc(S)[nH]1)C(=O)C(C(=O)c1ccc2ccccc2c1)C1OC(=O)c2ccccc21` (stereo not drawn), the GI50 is 11.5 µM (inactive) with HCC 2998; 20.4 µM (inactive) in the test on IGROV-1; 14.7 µM (inactive) in the test with HOP-62; 31 µM (inactive) in the test on Malme-3M; 23 µM (inactive) in the test on SK-MEL-2; 18.1 µM (inactive) in the test on SK-MEL-5. The GI50 in the test with M14 is 19.1 µM (inactive); in the test with MOLT-4 it was 3.78 µM (inactive); in the test on SK-OV-3, 23.4 µM (inactive); in the test on RPMI-8226 it was 7.69 µM (inactive); with SW-620, 28.9 µM (inactive); with CAKI-1, 30.3 µM (inactive). For the same molecule, the GI50 with OVCAR-8 is 11.9 µM (inactive); in the test with HT-29, 35 µM (inactive); in the test on KM12, 26.8 µM (inactive); in the test with HCT-15 it was 27.9 µM; in the test with A549, 37.5 µM (inactive); with HOP-92 it was 25.8 µM (inactive).

Regarding `O=C1/C(=N\O)C2CCC1C2` (stereo not drawn), the GI50 in the test on SF-295, with HCC 2998, in the test with IGROV-1, in the test with HOP-62, in the test with Malme-3M and with SK-MEL-2 was > 100 µM (inactive) in each case. Also, the GI50 in the test with SK-MEL-5, in the test on M14, in the test with MOLT-4, in the test on SK-OV-3, in the test with RPMI-8226 and in the test on SW-620 was > 100 µM (inactive) each time. Besides, the GI50 in the test on CAKI-1 is > 100 µM (inactive); with OVCAR-8, > 100 µM (inactive); in the test on HT-29, > 100 µM (inactive); with KM12, > 100 µM (inactive); in the test on HCT-15, greater than 100 µM; with A549, > 100 µM (inactive). In the test on HOP-92, the GI50 was > 100 µM (inactive).

As to `CC1=CC(=O)C(=O)C2=C1OC1(C2)C(C)CCC2C3(C)CCC(O)C(C)(C)C3CCC21C` (stereo not drawn), the GI50 in the test on SF-295 was 15.7 µM (inactive); in the test on HCC 2998 it was 19 µM (inactive); in the test with IGROV-1 it was 17.6 µM (inactive); with HOP-62, 19.2 µM (inactive); in the test with Malme-3M it was 19.8 µM (inactive); in the test with SK-MEL-5 it was 18 µM (inactive). The GI50 is 18.8 µM (inactive) with M14; 17.1 µM (inactive) in the test with MOLT-4; 29 µM (inactive) with SK-OV-3; 23.6 µM (inactive) with RPMI-8226; 22.1 µM (inactive) in the test with SW-620; 17.5 µM (inactive) in the test on CAKI-1. The GI50 with OVCAR-8 was 19.5 µM (inactive); with HT-29, 20.6 µM (inactive); in the test on KM12, 15.7 µM (inactive); with HCT-15, 19.4 µM; in the test on A549 it was 33.3 µM (inactive); in the test with HOP-92, 17.3 µM (inactive).

As for `COC(=O)CC(=O)OC1C[C@@H]2CCC3C(C)(C)CCC[C@]3(C)C23CC[C@@]1(C)C3` (stereo partly drawn), the GI50 with SF-295 was 19.2 µM (inactive); in the test on HCC 2998, 19.8 µM (inactive); with IGROV-1, 16.9 µM (inactive); in the test on HOP-62 it was 19.3 µM (inactive); in the test with Malme-3M, 17.9 µM (inactive); in the test on SK-MEL-5, 17.6 µM (inactive). Also, the GI50 with M14 was 18 µM (inactive); in the test with MOLT-4 it was 53.8 µM (inactive); with SK-OV-3 it was 24.5 µM (inactive); with RPMI-8226, 45.9 µM (inactive); in the test on SW-620, 18.2 µM (inactive); with CAKI-1, 16.9 µM (inactive). In addition, the GI50 in the test on OVCAR-8 was 19.5 µM (inactive); in the test on HT-29 it was 19.2 µM (inactive); in the test on KM12, 18.5 µM (inactive); with HCT-15, 19.9 µM; with A549 it was 24.5 µM (inactive); in the test with HOP-92 it was 18 µM (inactive).

For the molecule `C/C(=C\CC[C@]1(C)OC(C)(C)OC1CC/C(C)=C/CO[Si](c1ccccc1)(c1ccccc1)C(C)(C)C)CC/C=C/CO[Si](C)(C)C(C)(C)C` (stereo partly drawn), the GI50 in the test with SF-295, with HCC 2998, with IGROV-1, with HOP-62, in the test with Malme-3M and with SK-MEL-2 was > 100 µM (inactive) throughout. Also, the GI50 in the test on SK-MEL-5, with M14, in the test with MOLT-4, with SK-OV-3, with RPMI-8226 and with SW-620 was > 100 µM (inactive) each time. Also, the GI50 in the test with CAKI-1 is > 100 µM (inactive); with OVCAR-8 it was > 100 µM (inactive); in the test with HT-29, > 100 µM (inactive); in the test on KM12 it was > 100 µM (inactive); in the test on HCT-15, greater than 100 µM; in the test with A549 it was > 100 µM (inactive). Besides, the GI50 in the test with HOP-92 was > 100 µM (inactive).
